Results published in patent publication US20240398789A1, “PHARMACEUTICAL COMPOSITION FOR ENHANCING ANTI-TUMOR EFFECT OF EZH2 INHIBITOR AND USE THEREOF” (PEKING UNIVERSITY THIRD HOSPITAL, priority 2021, published 2024).
pIC50: −log10 of the molar value.

Key:
melanoma cells B16F10 = assay: Cell scratch assay (migration) of B16F10 cells; format: cell-based; details: GSK126 10 μM, 36 h of culture, vs control group
Description: (§1) FIG. 2: Melanoma cells B16F10 are less sensitive to GSK126. (A) Cell scratch assay, showing the effect of GSK126 (10 μM) treatment on the migration capability of B16F10 cells, with 3 replicates per group; (B-C) the effect of GSK126 (10, 13, and 15 μM) on the apoptosis rate of B16F10 cells, as examined by flow cytometry (C) and Annexin V staining assay. 3 replicates were established for each group, with *P<0.05, **P<0.01, and ***P<0.001, and ns for no statistical difference.
(§2) Next, to further validate the effect of GSK126 at 10 μM on melanoma cells B16F10,scratch assay was conducted. […] In addition, to assess the anti-survival effect of GSK126, B16F10 cells were treated by GSK126 at different concentrations for different periods, and the apoptosis rate of the cells was analyzed by flow cytometry (FIG. 2B) and live-cell fluorescence imaging (FIG. 2C).

[1] = system: ACLY, FASN, SCD in Huh7 cells; assay: RT-qPCR/WB of fatty acid synthesis genes in Huh7 cells; format: cell-based; details: after GSK126 treatment
Source text: (§3) FIG. 4: Lipid accumulation in mice after GSK126 treatment. (A) H & E and oil red O staining of the liver tissue sections of the tumor-bearing mice in the control group and the GSK126 treatment group, in which the statistical results of negative or positive staining area were shown on the right (3 replicates per group); (B) TG level in the serum of the tumor-bearing mice in the control group and the GSK126 treatment group (5 replicates per group); (C-D) mRNA (C) and protein (D) levels of the genes related to fatty acid anabolism in the GSK126-treated HCC cells, as detected by RT-qPCR and WB (3 replicates per group). 3 to 5 replicates were established for each group, with *P<0.05, **P<0.01.
(§4) C57BL/6 mice (6-8 weeks old) were subcutaneously implanted with B16F10 cells and then treated with GSK126. […] Therefore, the expression of fatty acid synthesis-related genes in GSK126-treated hepatocellular carcinoma (HCC) cell lines SMMC7721 and Huh7 was further detected.

melanoma B16F10 cells [2] = assay: Fatty acid metabolite levels in B16F10 cells; format: cell-based; details: GSK126 group
Source text: FIG. 3: GSK126 results in significant elevated levels of 6 fatty acids in melanoma B16F10 cells.
Among the metabolites with significant changes, the levels of many fatty acids increased in the GSK126 group. There are five polyunsaturated fatty acids, including α-linolenic acid, DHA, EPA, linoleic acid, and γ-linolenic acid) and one monounsaturated fatty acid, i.e., 10Z-heptadienoic acid (FIG. 3).

[3] = system: mouse brain glioma cell line (GL261); assay: IncuCyte S3 live-cell proliferation of GL261 cells; format: cell-based
Description: 3 to 6 replicates were established for each group, with *P<0.05, **P<0.01, and ***P<0.001, and ns for no statistical difference.
IncuCyte S3® Live-Cell Analysis System was used to monitor and analyze the growth of mouse glioma GL261 cells. • (1) GL-261 cells in logarithmic growth phase were prepared into a single cell suspension, and the cells were counted; • (2) GL261 cells were added into a 96-well plate at a density of 8x10^4 cells/mL, with 4-6 replicate wells per each group; • (3) The 96-well plate was then placed in an incubator for another 12-24 hours, and the plate was refreshed with a culture medium containing the drug at the cell confluence of about 20-30%. GSK126 and fenofibrate (FF) were serially diluted using the medium; • (4) The 96-well plate was then placed in the incubator suitable for the instrument, and detected with IncuCyte S3® Live-Cell Analysis System. Cell growth images of 4 different areas in each well were taken at an interval of 4 h using a 10× objective lens. • (5) The plate was real-time monitored for 48 h, and the cell confluence was determined by defining the cell edge using IncuCyte S3 image analysis software and normalized to the cell confluence at 0 h. […]

hepatoma Huh7 cells = assay: IncuCyte S3 live-cell proliferation of Huh7 cells; format: cell-based
Description: (§5) FIG. 1: Hematological tumors are more sensitive to GSK126 than solid tumors. (A) Proliferation of B16F10, Huh7 and SMMC7721 cells in GSK126 (10-20 μM) treatment was monitored by Incucyte S3 with 6 replicates per group; (B) Viabilities of Daudi and THP-1cells after GSK126 (200 nM to 24 μM) treatment for 24 h and 48 h were measured by CCK-8 assay with 5 replicates per group; (C) Western blot (WB) analysis on B16F10 cells after 48 h without or with GSK126 treatment (6 μM, and 12 μM), with H3 used as an internal reference for histone. 5 to 6 replicates were established for each group, with *P<0.05, **P<0.01, and ***P<0.001, and ns for no statistical difference.
(§6) In order to accurately assess the responsiveness of solid tumor cells to EZH2 inhibitors, the effects of GSK126 at different concentrations on the proliferation of melanoma B16F10 cells and hepatoma Huh7 and SMMC-7721 cells were initially detected by IncuCyte S3® Live-Cell Analysis System.

[4] = system: ACLY, FASN, SCD in SMMC7721 cells; assay: RT-qPCR/WB of fatty acid synthesis genes in SMMC7721 cells; format: cell-based; details: after GSK126 treatment
Source text: as §3
(§7) FIG. 6: Lipid-modulating drugs can enhance the inhibitory effect of GSK126 on cancer cells. […] 3 to 5 replicates were established for each group, with *P<0.05, **P<0.01, and ***P<0.001.
as §4

[5] = system: hematologic cancer cell lines; details: most hematologic cancer cell lines; many studies; read-out: IC50 (half-maximal inhibitory concentration); cited from earlier work
[6] = system: Burkitt's lymphoma cells (Daudi); assay: CCK-8 cell proliferation assay, Daudi; format: cell-based
Description: as §5

B16F10 cells = assay: Apoptosis of B16F10 cells by flow cytometry and live-cell fluorescence imaging; format: cell-based; details: GSK126 10 μM
Description: as §1, §2

THP-1 cells = assay: CCK-8 cell proliferation assay, THP-1; format: cell-based; details: 10 μM GSK126 for 24 h and 48 h
Description: as §5

C57BL/6 mice = assay: Lipid accumulation in B16F10 tumor-bearing C57BL/6 mice; format: in vivo; details: B16F10 tumor-bearing C57BL/6 mice treated with GSK126
Source text: as §3, §4

melanoma B16F10 cells [7] = assay: IncuCyte S3 live-cell proliferation of B16F10 cells; format: cell-based
Description: as §5
P=0.0108, P=0.0385, Kaplan-Meier survival analysis; (C) effect of telmisartan at different concentrations on the proliferation of U87 cells (left) and U251 cells (right) (3 replicates per group); (D) effect of fenofibrate at different concentrations on the proliferation of B16F10 cells (left) and 4T1 cells (right) (3 replicates per group); (E) FACS quantitative analysis of the percentage of cells positive for EdU (FITC+) staining 48 h after the telmisartan treatment on U87 and U251 cells. Single cells were first gated, followed by FITC+cells. The percentage of FITC+ cells was listed above the corresponding cell population. […]

[8] = system: H3K27me3 level in B16F10 cells; assay: Western blot of H3K27me3 in B16F10 cells; format: cell-based; details: GSK126 6 μM, 48 h, H3 internal reference
Description: as §5

hepatoma SMMC-7721 cells = assay: IncuCyte S3 live-cell proliferation of SMMC-7721 cells; format: cell-based
Description: as §5, §7, §6

human glioma cells U87 = assay: Incucyte real-time proliferation of U87 cells; format: cell-based; details: telmisartan at different concentrations
Description: (§8) P=0.0108, P=0.0385, Kaplan-Meier survival analysis; (C) effect of telmisartan at different concentrations on the proliferation of U87 cells (left) and U251 cells (right) (3 replicates per group); (D) effect of fenofibrate at different concentrations on the proliferation of B16F10 cells (left) and 4T1 cells (right) (3 replicates per group); (E) FACS quantitative analysis of the percentage of cells positive for EdU (FITC+) staining 48 h after the telmisartan treatment on U87 and U251 cells. Single cells were first gated, followed by FITC+cells. The percentage of FITC+ cells was listed above the corresponding cell population. 3 replicates were established for each group, with *P<0.05, **P<0.01, ***P<0.001, and ****P<0.0001, and ns for no statistical difference.
(§9) Therefore, telmisartan and fenofibrate were selected to explore whether lipid metabolism-regulating drugs have anti-tumor effects. […] The effect of telmisartan (50 μM) on cell proliferation was further verified by EdU staining.

human glioma cells U251 = assay: Incucyte real-time proliferation of U251 cells; format: cell-based; details: telmisartan at different concentrations
Description: as §8, §9

U251 cells = assay: EdU staining with flow cytometry, U251; format: cell-based, human; details: telmisartan 50 μM, 48 h, 41.44% before treatment
Description: as §8, §9

U87 cells = assay: EdU staining with flow cytometry, U87; format: cell-based, human; details: telmisartan 50 μM, 48 h, 24.25% before treatment
Description: as §8, §9

[9] = GSK126 at different concentrations (10-20 μM)

With `CC[C@H](C)n1cc(C)c2c(C(=O)NCc3c(C)cc(C)[nH]c3=O)cc(-c3ccc(N4CCNCC4)nc3)cc21` [GSK126] the cell migration (melanoma cells B16F10) was “did not effectively inhibit cell migration”, the “mRNA and protein levels of ACLY, FASN, and SCD” value [1] was “significantly elevated” and the “levels of fatty acids (α-linolenic acid, DHA, EPA, linoleic acid, γ-linolenic acid, 10Z-heptadienoic acid)” value (melanoma B16F10 cells [2]) was “increased”. The “inhibitory effect on cell proliferation” value ([3]; GSK126 20 μM alone, compared with 40 μM or combination) was “can not achieved”, the “inhibitory effect on cell proliferation” value ([3]; GSK126 40 μM, compared with GSK126 20 μM + fenofibrate 10 μM) was “the same as that of the combination” and the cell proliferation (hepatoma Huh7 cells; GSK126 10 μM) was “less effective”. The cell proliferation (hepatoma Huh7 cells; [9]) was “inhibited cell proliferation in a dose-dependent manner”, the “mRNA and protein levels of ACLY, FASN, and SCD” value [4] was “significantly elevated” and the pIC50 [5] was > 6.00. For the same compound, the “sensitivity (CCK-8 proliferation)” value ([6]; 1 μM GSK126) was “very sensitive”, the “proliferation (CCK-8)” value ([6]; 10 μM GSK126 for 24 h and 48 h) was “significantly inhibited” and the apoptosis rate (B16F10 cells) was “limited capability to induce apoptosis”. For the same compound, the “proliferation (CCK-8)” value (THP-1 cells) was “significantly inhibited”, the “fat vacuoles and lipid deposition in liver tissue sections (H & E and oil red O staining)” value (C57BL/6 mice) was “significant increase” and the “levels of triglycerides (TG) in blood” value (C57BL/6 mice) was “significantly elevated”. The cell proliferation (melanoma B16F10 cells [7]; GSK126 10 μM) was “less effective”, the cell proliferation (melanoma B16F10 cells [7]; [9]) was “inhibited cell proliferation in a dose-dependent manner” and the H3K27me3 level [8] was “significantly down-regulated”. For the same compound, the cell proliferation (hepatoma SMMC-7721 cells; GSK126 10 μM) was “less effective” and the cell proliferation (hepatoma SMMC-7721 cells; [9]) was “inhibited cell proliferation in a dose-dependent manner”.

With `CCCc1nc2c(C)cc(-c3nc4ccccc4n3C)cc2n1Cc1ccc(-c2ccccc2C(=O)O)cc1` [telmisartan] the cell proliferation (human glioma cells U87) was “inhibit the proliferation”, the cell proliferation (human glioma cells U251) was “inhibit the proliferation” and the “percentage of EdU+ cells” value (U251 cells) was 38.78%. The “percentage of EdU+ cells” value (U87 cells) was 21.16%.
